The compound `CCOC(=O)c1[nH]c2cc(Br)c(Cl)cc2c1-c1ccccc1` came in with a melting point of 205 to 206 °C.

In the case of `O=C(O)c1cn(-c2cccs2)c2cc(F)c(F)cc2c1=O`, the melting point was in the range of 245 to 246 °C.

Turning to `O=C(Nc1ccc(Oc2ccccc2)cc1)N1CCN(c2ncnc3ccc(Br)cc23)CC1`, the melting point lay in the range of 169 to 170 °C.

The compound `O=Cc1cc2ccccc2n1-c1cccnc1` returned a melting point of 101 to 103 °C.

Regarding `Brc1ccc(Nc2ncc3cc4ccccc4n3n2)cc1`, the melting point was 237 to 243 °C.

Regarding `O=C(O)c1ccc2[nH]c(=O)n(CCCCN3CC=C(c4ccccc4)CC3)c(=O)c2c1`, the melting point amounted to 237 °C.

Compound `COc1cc(Cl)c2c(=O)c(N3CCCCC3)coc2c1` gave a melting point of 122 to 125 °C.

The compound `Oc1ccc2cc(OCC(O)CCc3cccnc3)ccc2c1` (configuration not stated) yielded a melting point of 165 to 166 °C.

The compound `CCc1nc2ncnn2c(N)c1CCc1ccccc1` yielded a melting point of 210 to 211 °C.

`CNC(=O)C(Cc1ccc(OC)cc1)NC(=O)C(C)(CC(C)C)c1ccccc1S` (configuration not stated) displayed a melting point of 165 to 168 °C.

With `C=CCNc1nc(NCC=C)c2cc(Cl)ccc2n1`, the melting point fell in the range of 78 to 79 °C.

The compound `CCCOc1ccc(/C=C/c2nc3c(c(=O)n(CC)c(=O)n3CC)n2C)cc1` displayed a melting point of 156 °C.

In turn, `CC1(C)OC(=O)Nc2ccc(/C(=C/C(N)=O)c3ccccc3)cc21` came in with a melting point of 219 to 220 °C.

The compound `CCOC(=O)c1c[nH]cc1-c1cccc(F)c1` gave a melting point of 120 to 122 °C.

On to `O=c1nc(-c2cccc(SCCCc3ccccc3)n2)sc2ccccc12`, for which the melting point lay in the range of 192 to 194 °C.

As to `COC(=O)C1N2C(=O)C(N3C(=O)c4ccccc4C3=O)C2SCC1(C)O` (configuration not stated), the melting point is 203 °C.

`CCc1nn(CCO)c(CO)c1Sc1cc(Cl)cc(Cl)c1`: the melting point is 106 to 108 °C.

`CN(C)CCOc1ccc(Nc2nccc(-c3ccncc3)n2)cc1` registered a melting point of 120 to 122 °C.

Consider `CN(C)CCCN(c1ccccc1)c1ncccc1NC(=O)c1ccccc1Cl`, for which the melting point was 90 to 92 °C.

With `C=CCc1c(O)c(C)cc2ccc(=O)oc12`, the melting point lay within 161 to 162 °C.

Regarding `CCOC(=O)C1=Cc2cccc(C(N)=O)c2OCC1`, the melting point lay within 120 to 125 °C.

In turn, `O=C(Nc1ccc(Cl)cn1)c1cc(Cl)ccc1NCC1CCN(C2CCSC2)CC1` (configuration not stated) yielded a melting point of 178 to 181 °C.

For the compound `FC(F)(F)c1ccc(-c2nccc(Oc3cccc(C(F)(F)F)c3)n2)cc1`, the melting point is 66 to 67 °C.

Compound `CCNCC1CCN(c2nc3c(cc2F)c(=O)c(C(=O)O)cn3CC)C1` (configuration not stated) yielded a melting point of 230 to 232 °C.

Compound `O=c1c2c(CCc3ccc([N+](=O)[O-])cc3)n[nH]c2c2cccnc2n1-c1ccccc1` registered a melting point of 260 to 262 °C.

In turn, `CCOc1cc2c(cc1OCC)C(c1cccc(N)c1)=NN=C(C)C2` registered a melting point of 133 to 134 °C.

In the case of `Cc1cc(SCCC#Cc2ccc(C(F)(F)F)cc2)ccc1OCC(=O)O`, the melting point lay in the range of 129 to 130 °C.

Consider `COC(=O)CCCc1cc2nc(Cl)ccc2n1S(=O)(=O)c1cccc2cccnc12`, for which the melting point amounted to 64 °C.

As to `COc1cc2c(cc1OCCCBr)oc1cc(-c3ccccc3Cl)c3c(c12)C(=O)N(CCCBr)C3=O`, the melting point lay within 180 to 182 °C.

In turn, `CN(C)S(=O)(=O)c1cccc2c1Sc1ccc(OCc3ccccc3)cc1N2` returned a melting point of 192 to 194 °C.

Regarding `CNC(=O)c1cc(NCc2c(C)cccc2C)c2nc(C)n(C)c2c1`, the melting point was 252 to 253 °C.

The compound `CCCCCCCCCCCCCCCCOC(=O)NCCN1CCCCC1` gave a melting point of 48 °C.

`CC(C)N(C(=O)CN1C(=O)C(C)(CC(=O)Nc2ccccc2)C(=O)N(c2ccccc2)c2ccccc21)c1ccccc1` (configuration not stated) returned a melting point of 228 to 229 °C.

Turning to `O=c1ccn(-c2cccc(C(F)(F)F)c2)nc1-c1ccsc1-c1ccccc1`, the melting point fell in the range of 167 to 168 °C.

`CN(C)Cc1c(-c2ccccc2)nc2c(C(=O)NC(C#N)c3cccc(F)c3)cccn12` (configuration not stated) came in with a melting point of 123 to 124 °C.

The compound `COCCOc1cc(N(C)S(=O)(=O)c2ccccn2)c2[nH]c(C3=N[C@@H](CO)CS3)cc2c1` gave a melting point of 147 °C.

As to `CC(CCC(=O)O)C1CCC2C3C(O)CC4CC(NC(=O)CNC(=O)OC(C)(C)C)CCC4(C)C3CC(O)C12C` (configuration not stated), the melting point was 150 to 155 °C.

Compound `Cc1cc2nccn2nc1OCC(C)(C)CCCCS(N)(=O)=O` registered a melting point of 169 to 170 °C.

Consider `Cn1ncc(/C=C/C(=O)Nc2ccc(Cc3nc(C(=O)O)cs3)cc2)c1-c1ccc(F)cc1`, for which the melting point lay in the range of 226 to 227 °C.

With `CN1CCC(Oc2ccccn2)(c2ccccc2)CC1`, the melting point is 95 to 96 °C.

For `Cc1ccc2c(c1C)OC(=O)C2c1ccc(C(C)C)cc1` (configuration not stated), the melting point was in the range of 58 to 60 °C.

`Cc1nn(C)c(C(=O)N(C)C)c1Nc1ccccc1[N+](=O)[O-]` had a melting point of 144 to 146 °C.

Compound `CNc1nc(Cl)nc2c(SC)ncnc12` yielded a melting point of 233 to 234 °C.

In turn, `NC(=O)c1cc(O)cc2nc(-c3ccc(O)cc3)oc12` returned a melting point of 325 °C.

For the compound `CC(O)(c1ccc(OCc2ccc3ccccc3n2)cc1)c1ccc(OCc2ccc3ccccc3n2)cc1`, the melting point lay in the range of 129 to 131 °C.

On to `O=C(Cn1c(-c2ccc(Br)cc2)nc2cccnc21)Nc1ccccn1`, for which the melting point is 192 to 195 °C.

In turn, `NN(C(=O)c1c(F)cccc1Cl)c1ccccc1C(F)(F)F` yielded a melting point of 147 to 148 °C.

`CCOC(=O)c1cc(-c2nn3c(c2Cl)CCCC3)c(F)cc1Cl` showed a melting point of 72 to 73 °C.

In the case of `COc1cccc(-c2nc(Cl)nc(Nc3cccc([N+](=O)[O-])c3)n2)c1`, the melting point is 155 °C.

`CCOC(=O)C(=Cc1ccco1)c1csc(N)n1` registered a melting point of 109 to 110 °C.

Compound `Cc1[nH]c(=O)c(-c2csc(-c3ccnc(NCCNC(C)C)c3)n2)cc1C(=O)NCCNC(C)C` returned a melting point of over 260 °C.

`CC(=O)Nc1onc(-c2ccccc2)c1Cl` came in with a melting point of 141 to 142 °C.

In turn, `CCn1nc(C(=O)OCc2ccccc2)cc(Nc2cnccc2C)c1=O` had a melting point of 137 to 138 °C.

`Cn1ccc2c1CC(c1ccccc1)CC2=O` (configuration not stated): the melting point was in the range of 166 to 167 °C.

Take `O=C(NCc1ccc(Cl)cc1)c1cn(CCc2ccccc2)c2oc(CCl)cc2c1=O`: the melting point lay in the range of 150 to 153 °C.

In turn, `O=C1c2ccc(N3CCCC3)c3cc(Br)cc(c23)C(=O)N1O` had a melting point of 234 to 235 °C.

In turn, `COC(=O)C1=C(c2ccc(OC)cc2)C(c2ccc(OC)cc2)OC1=O` (configuration not stated) had a melting point of 107 to 109 °C.

Consider `COc1cc2c(c(C(N)=O)c1OC)CCNCC2c1ccccc1` (configuration not stated), for which the melting point lay in the range of 178 to 180 °C.

In turn, `Cc1cc(-c2ccc(C(F)(F)F)cc2)nc(-c2cccc(-c3cccc(S(=O)(=O)NC(C)(C)C)c3)n2)n1` showed a melting point of over 250 °C.

As for `CCc1c2nc(-c3cc(S(C)(=O)=O)ccc3OCC(C)C)[nH]c(=O)c2nn1Cc1nccn1C`, the melting point was 253 to 254 °C.

Compound `OCCOCCNc1nc(-n2ccnc2)nc2ccc(CO)cc12` showed a melting point of 183 °C.

The compound `N=C(c1ccccc1)C1CCN1C(c1ccccc1)c1ccccc1` (configuration not stated) came in with a melting point of 124 to 126 °C.

Broadly, the melting point is the temperature of the solid-liquid transition.
